# Measured values reported in patent US10208059B2, “Heterocyclic modulators of HIF activity for treatment of disease” (Board of Regents, University of Texas System, priority 2012, dated 2019).
# Where a name gives a salt, the structure may show the parent alone.
# Tested on: 293T-HRE-GFP-luc cells
# Test: Cell-based reporter assay for IC50 determinations
# Details: hypoxia 6 hrs (1% O2), luminescence, read-out: IC50 Classification
# Experimental: Cell-Based Reporter Assay for IC50 Determinations
# 293T-HRE-GFP-luc cells were routinely maintained in DMEM media (high glucose version with GlutaMAX and HEPES, Gibco, catalog #10564) supplemented with 10% fetal bovine serum and 2 μg/mL puromycin (Invitrogen, catalog #A11138-03) using a humidified incubator (normoxia conditions consisting of 37° C., 5% CO2 and ambient O2).
# In preparation for the reporter assay, cells were harvested and resuspended in DMEM media (high glucose version with GlutaMAX and HEPES) supplemented with 10% fetal bovine serum. Cells were inoculated into 384-well white Culturplates (Perkin Elmer catalog #6007680) at a density of 12,000 cells/well in a volume of 30 μL. The microplates were incubated overnight (approximately 17-19 hours) at 37° C. with 5% CO2 and ambient O2. Stock solutions of the test compounds were prepared in DMSO (Sigma, Catalog #D2650) and serially diluted 1:3 using DMSO. Compounds were additionally diluted (1:50) with culturemedium and 10 μL were added per well to the Culturplate. Following a 30 min. incubation under normoxia conditions, the plates were incubated in hypoxia for 6 hrs. (37° C., 5% CO2 and 1% O2). Steadylite Plus (Perkin Elmer, catalog #6016751) was then added (40 μL/well), the plates were mixed on an orbital shaker at room temperature in the dark for 15 min., and luminescence was measured using an Envision plate reader (Perkin Elmer). IC50 values were calculated using a four-parameter logistic curve fit. Results are shown below in Table 2; ND indicates no data.
row,SMILES,IC50
1,"Cc1nc(-c2nc(-c3ccc(OC(F)(F)F)cc3)no2)nn1Cc1cccc(OCCCO)c1 [Example 71, 3-{3-[(5-Methyl-3-{3-[4-(trifluoromethoxy)phenyl]-1,2,4-oxadiazol-5-yl}-1H-1,2,4-triazol-1-yl)methyl]phenoxy}propan-1-ol]",< 100 nM
2,"Cc1nc(-c2noc(-c3ccc(OC(F)(F)F)cc3)n2)nn1Cc1cccc(N2CCN(C)CC2)c1 [Example 56, 3-(5-Methyl-1-(3-(4-methylpiperazin-1-yl)benzyl)-1H-1,2,4-triazol-3-yl)-5-(4-(trifluoromethoxy)phenyl)-1,2,4-oxadiazole]",< 100 nM
3,"Cc1nc(-c2nc(-c3ccc(OC(F)(F)F)cc3)no2)nn1Cc1cccc(N2CCNCC2)c1 [Example 81, 1-{3-[(5-Methyl-3-{3-[4-(trifluoromethoxy)phenyl]-1,2,4-oxadiazol-5-yl}-1H-1,2,4-triazol-1-yl)methyl]phenyl}piperazine]",< 100 nM
4,"Cc1ccc(Cn2nc(-c3nc(-c4ccc(OC(F)(F)F)cc4)cs3)nc2C)cc1 [Example 149, 5-methyl-1-[(4-methylphenyl)methyl]-3-{4-[4-(trifluoromethoxy)phenyl]-1,3-thiazol-2-yl}-1H-1,2,4-triazole]",< 100 nM
5,"Cc1nc(-c2nc(-c3ccc(OC(F)(F)F)cc3)no2)nn1Cc1ccnc(N2CCNCC2)c1 [Example 1, 4-(4-((5-Methyl-3-(3-(4-(trifluoromethoxy)phenyl)-1,2,4-oxadiazol-5-yl)-1H-1,2,4-triazol-1-yl)methyl)pyridin-2-yl)piperazin-1-ium trifluoroacetate]",100 to 1000 nM
6,"Cc1nc(-c2nc(-c3ccc(OC(F)(F)F)cc3)no2)nn1Cc1ccnc(N2CCOCC2)n1 [Example 55, 4-(4-((5-Methyl-3-(3-(4-(trifluoromethoxy)phenyl)-1,2,4-oxadiazol-5-yl)-1H-1,2,4-triazol-1-yl)methyl)pyrimidin-2-yl)morpholine]",< 100 nM
7,"Cc1nc(-c2nc(-c3ccc(OC(F)(F)F)cc3)no2)nn1Cc1ccnc(NCCN2CCCC2)c1 [Example 46, 4-((5-Methyl-3-(3-(4-(trifluoromethoxy)phenyl)-1,2,4-oxadiazol-5-yl)-1H-1,2,4-triazol-1-yl)methyl)-N-(2-(pyrrolidin-1-yl)ethyl)pyridin-2-amine]",1000 to 10000 nM
8,"Cc1nc(-c2nc(-c3ccc(OC(F)(F)F)cc3)no2)nn1Cc1cccc(C(=O)O)c1 [Example 119, 3-((5-methyl-3-(3-(4-(trifluoromethoxy)phenyl)-1,2,4-oxadiazol-5-yl)-1H-1,2,4-triazol-1-yl)methyl)benzoic acid]",100 to 1000 nM
9,"Cc1nc(-c2nc(-c3ccc(OC(F)(F)F)cc3)no2)nn1Cc1ccn(CC(C)C)c(=O)c1 [Example 76a, 4-[(5-Methyl-3-{3-[4-(trifluoromethoxy)phenyl]-1,2,4-oxadiazol-5-yl}-1H-1,2,4-triazol-1-yl)methyl]-1-(2-methylpropyl)-1,2-dihydropyridin-2-one]",100 to 1000 nM
10,"Cc1nc(-c2nc(-c3ccc(OC(F)(F)F)cc3)no2)nn1Cc1cn2ccccc2n1 [Example 16, 5-(1-(imidazo[1,2-a]pyridin-2-ylmethyl)-5-methyl-1H-1,2,4-triazol-3-yl)-3-(4-(trifluoromethoxy)phenyl)-1,2,4-oxadiazole]",100 to 1000 nM
11,"Cc1nc(-c2nc(-c3ccc(OC(F)(F)F)cc3)no2)nn1Cc1ccnc(N2CCCC2)n1 [Example 121, 4-[(5-methyl-3-{3-[4-(trifluoromethoxy)phenyl]-1,2,4-oxadiazol-5-yl}-1H-1,2,4-triazol-1-yl)methyl]-2-(pyrrolidin-1-yl)pyrimidine]",100 to 1000 nM
12,"Cc1nc(-c2nc(-c3ccc(OC(F)(F)F)cc3)no2)nn1Cc1cccc(N2CCN(C(=O)CO)CC2)c1 [Example 83, 2-Hydroxy-1-(4-{3-[(5-methyl-3-{3-[4-(trifluoromethoxy)phenyl]-1,2,4-oxadiazol-5-yl}-1H-1,2,4-triazol-1-yl)methyl]phenyl}piperazin-1-yl)ethan-1-one]",< 100 nM
13,"Cc1nc(-c2nc(-c3ccc(OC(F)(F)F)cc3)no2)nn1Cc1ccnc(OCC(C)C)c1 [Example 76b, 4-[(5-Methyl-3-{3-[4-(trifluoromethoxy)phenyl]-1,2,4-oxadiazol-5-yl}-1H-1,2,4-triazol-1-yl)methyl]-2-(2-methylpropoxy)pyridine]",100 to 1000 nM
14,"COCCCNC(=O)c1ccc(Cn2nc(-c3nc(-c4ccc(OC(F)(F)F)cc4)no3)nc2C)cc1 [Example 41, N-(3-Methoxypropyl)-4-((5-methyl-3-(3-(4-(trifluoromethoxy)phenyl)-1,2,4-oxadiazol-5-yl)-1H-1,2,4-triazol-1-yl)methyl)benzamide]",100 to 1000 nM
15,"Cc1nc(-c2nc(-c3ccc(OC(F)(F)F)cc3)no2)nn1Cc1cccc(OC2CCOCC2)c1 [Example 69, 5-(5-Methyl-1-{[3-(oxan-4-yloxy)phenyl]methyl}-1H-1,2,4-triazol-3-yl)-3-[4-(trifluoromethoxy)phenyl]-1,2,4-oxadiazole]",< 100 nM
16,"Cc1nc(-c2nc(-c3ccc(OC(F)(F)F)cc3)cs2)nn1Cc1ccnc(N2CCN(C)CC2)c1 [Example 87, 1-Methyl-4-{4-[(5-methyl-3-{4-[4-(trifluoromethoxy)phenyl]-1,3-thiazol-2-yl}-1H-1,2,4-triazol-1-yl)methyl]pyridin-2-yl}piperazine]",< 100 nM
17,"COc1nccc(Cn2nc(-c3nc(-c4ccc(OC(F)(F)F)cc4)no3)nc2C)n1 [Example 115, 5-(1-((2-methoxypyrimidin-4-yl)methyl)-5-methyl-1H-1,2,4-triazol-3-yl)-3-(4-(trifluoromethoxy)phenyl)-1,2,4-oxadizole]",1000 to 10000 nM
18,"Cc1nc(-c2nc(-c3ccc(OC(F)(F)F)cc3)no2)nn1Cc1cccc2c1cnn2C [Example 110, 5-(5-methyl-1-((1-methyl-1H-indazol-4-yl)methyl)-1H-1,2,4-triazol-3-yl)-3-(4-(trifluoromethoxy)phenyl)-1,2,4-oxadiazole]",100 to 1000 nM
19,"Cc1nc(-c2nc(-c3ccc(OC(F)(F)F)cc3)no2)nn1Cc1cccc(S(C)(=O)=O)c1 [Example 106, 5-(5-methyl-1-(3-(methylsulfonyl)benzyl)-1H-1,2,4-triazol-3-yl)-3-(4-(trifluoromethoxy)phenyl)-1,2,4-oxadiazole]",< 100 nM
20,"Cc1nc(-c2nc(-c3ccc(C(C)(C)C)cc3)no2)nn1Cc1ccnc(N2CCN(C)CC2)c1 [Example 9, 3-(4-(tert-Butyl)phenyl)-5-(5-methyl-1-((2-(4-methylpiperazin-1-yl)pyridin-4-yl)methyl)-1H-1,2,4-triazol-3-yl)-1,2,4-oxadiazole]",< 100 nM
21,"CCc1nc(-c2nc(-c3ccc(OC(F)(F)F)cc3)no2)nn1Cc1ccccc1 [Example 33, 5-(1-Benzyl-5-ethyl-1H-1,2,4-triazol-3-yl)-3-(4-(trifluoromethoxy)phenyl)-1,2,4-oxadiazole]",1000 to 10000 nM
22,"Cc1nc(-c2cc(-c3ccc(OC(F)(F)F)cc3)no2)nn1Cc1ccnc(N2CCN(C)CC2)c1 [Example 161, 1-methyl-4-{4-[(5-methyl-3-{3-[4-(trifluoromethoxy)phenyl]-1,2-oxazol-5-yl}-1H-1,2,4-triazol-1-yl)methyl]pyridin-2-yl}piperazine]",< 100 nM
23,"Cc1nc(-c2nc(-c3ccc(OC(F)(F)F)cc3)no2)nn1Cc1ccc(S(C)(=O)=O)cc1 [Example 127, 5-{1-[(4-methanesulfonylphenyl)methyl]-5-methyl-1H-1,2,4-triazol-3-yl}-3-[4-(trifluoromethoxy)phenyl]-1,2,4-oxadiazole]",100 to 1000 nM
